The values below come from patent US20260297022A1, “PROCESS FOR THE PREPARATION OF SULFAMOYLBENZOIC ACID DERIVATIVES” (IAMA THERAPEUTICS S.R.L., priority 2023, published 2026).

In brackets after ≈: the same amount, converted by molar mass.

The nature of one data set: Aqueous kinetic solubility from a solution of 10 mM DMSO in phosphate buffered saline (PBS) at pH 7.4. The format is physicochemical. As to conditions: PBS pH 7.4, 25° C., target concentration 250 μM, 2.5% DMSO, UV quantification at 215 nm, read-out: Kinetic sol. PBS pH 7.4. On the procedure:
Aqueous kinetic solubility of derivative compounds of the benzoic acid starting from a solution of 10 mM DMSO in phosphate buffered saline (PBS) at pH 7.4
Aliquots of 30 μL of stock solution of the test compound in 10 mM DMSO were incubated in phosphate buffered saline (PBS) at pH 7.4 at 25° C. for 24 hours. After centrifugation, the compound dissolved in the supernatant was quantified by […].
The target concentration was 250 μM with a final concentration of 2.5% DMSO. Aqueous kinetic solubility was determined by UV quantification at 215 nm. The kinetic solubility was then calculated by dividing the peak area of the supernatant by the peak area of the reference and multiplying by the reference concentration (μM) and the dilution factor (1.25).
`CN(C)S(=O)(=O)c1cc(C(=O)O)ccc1NCCCCCCCC(F)(F)F` [Compound 1, 3-(dimethylsulfamoyl)-4-(8,8,8-trifluorooctylamino)benzoic acid]: the solubility kinetic at 24 h is reported as more than 250 µM. Consider `CCCCCCNc1ccc(C(=O)O)cc1S(N)(=O)=O` [Compound 2], for which the solubility kinetic at 24 h was found to be 238 µM (≈ 71.5 µg/mL). Turning to `CCCCCCCCNc1ccc(C(=O)O)cc1S(N)(=O)=O` [Compound 3], the solubility kinetic at 24 h was more than 250 µM.

Regarding `CCCCCCNc1ccc(C(=O)O)cc1S(=O)(=O)NC` [Compound 4], the solubility kinetic at 24 h turned out to be 247 µM (≈ 77.7 µg/mL). Same read-out and setting: as for `CCCCCCNc1ccc(C(=O)O)cc1S(=O)(=O)N(C)C` [Compound 5], the figure is 243 µM (≈ 79.8 µg/mL); as for `CN(C)S(=O)(=O)c1cc(C(=O)O)ccc1NCCC(C)(C)C` [Compound 6], more than 250 µM; as for `CN(C)S(=O)(=O)c1cc(C(=O)O)ccc1NCCCC(F)(F)F` [Compound 7], 245 µM (≈ 86.8 µg/mL). On the same count and under the same terms, the same measure for `CN(C)S(=O)(=O)c1cc(C(=O)O)ccc1NCCCCCC(F)(F)F` [Compound 8]: 249 µM (≈ 95.2 µg/mL); for `COCCNc1ccc(C(=O)O)cc1S(=O)(=O)N(C)C` [Compound 9]: 237 µM (≈ 71.7 µg/mL); for `COCCCCNc1ccc(C(=O)O)cc1S(=O)(=O)N(C)C` [Compound 10]: 247 µM (≈ 81.6 µg/mL). Still for that read-out and setting: the same measure for `COCCCCCCNc1ccc(C(=O)O)cc1S(=O)(=O)N(C)C` [Compound 11]: more than 250 µM; for `O=C(O)c1ccc(NCCCCCCCC(F)(F)F)c(S(=O)(=O)NC2CCCC2)c1` [Compound 12]: 223 µM (≈ 100 µg/mL); for `O=C(O)c1ccc(NCCCCCCCC(F)(F)F)c(S(=O)(=O)N2CCOCC2)c1` [Compound 13]: 244 µM (≈ 110 µg/mL). Regarding `O=C(O)c1ccc(NCCCCCCCC(F)(F)F)c(S(=O)(=O)NC2CCOCC2)c1` [Compound 14], the solubility kinetic at 24 h is on record as 244 µM (≈ 114 µg/mL).

On to `CN(C)S(=O)(=O)c1cc(C(=O)O)c(Cl)cc1NCCCCCCCC(F)(F)F` [Compound 16], for which the solubility kinetic at 24 h worked out at 241 µM (≈ 107 µg/mL). As to `CNS(=O)(=O)c1cc(C(=O)O)ccc1NCCCCCCCC(F)(F)F` [Compound 18], the solubility kinetic at 24 h was 242 µM (≈ 95.9 µg/mL). Same read-out and setting: as for `COc1cc(NCCCCCCCC(F)(F)F)c(S(=O)(=O)N(C)C)cc1C(=O)O` [Compound 20], the figure is 188 µM (≈ 82.8 µg/mL).

Still in this data set, the particulars now being: aqueous buffer, PBS pH 7.4, 25° C., target concentration 250 μM, 2.5% DMSO, UV quantification at 215 nm, read-out: Kinetic sol. PBS pH 7.4.
Turning to `CN(C)S(=O)(=O)c1cc(C(=O)O)ccc1N1CCN(CCCCC(F)(F)F)CC1` [Compound 15], the solubility kinetic at 24 h is more than 250 µM.

As to `C=CCCCCCNc1ccc(C(=O)O)cc1S(=O)(=O)N(C)C` [Compound 17], the solubility kinetic at 24 h is more than 250 µM. The same measure, in the same setting: as for `NS(=O)(=O)c1cc(C(=O)O)c(O)cc1NCCCCCCCC(F)(F)F` [Compound 19], the figure is more than 250 µM.
